Measurements as given in patent US12398110B2, “Second generation inhibitors of mitochondrial permeability transition pore with improved plasma stability” (Oregon Health & Science University, priority 2019, dated 2025).

What was measured:
[1] = test system: col6a1 zebrafish morphants; assay: Birefringence (muscle structure) in col6a1 zebrafish morphants; format: in vivo; details: 48 hpf
Procedure: Muscle structure was assessed by birefringence analysis at 48 hpf, a time when muscle tissue is fully developed and organized muscle fibers start to show anisotropic features. A high percentage of severe birefringence abnormality (>75%, FIG. 6C) was detected in col6a1 morphants, indicating major defects of muscle fiber development and organization.
Morpholino antisense injection and treatment. Knock-down of col6a1 gene expression was obtained with a previously published morpholino ^[25] with sequence GAGAGCGGAAGACGAACCTTCATTC (SEQ ID NO: 2; GeneTools, Inc.). A control morpholino with no sequence homology in the zebrafish genome was used in parallel (CCTCTTACCTCAGTTACAATTTATA; SEQ ID NO: 3). Zebrafish eggs from wild-type matings were injected at the 1-2 cell stage with approximately 10 nL of 0.1 mm morpholino solution (corresponding to 4 ng of morpholino) using a WPI pneumatic PicoPump PV820 injector (World Precision Instruments, Inc.). […]
Birefringence. Muscle structure was monitored by birefringence analysis, taking advantage of muscle anisotropy, which is the ability of muscle fibers to refract polarized light. […] With this set-up, light refracted by muscle fibers (due to the pseudo-crystalline array of sarcomeres) is transmitted and analyzed. Integrated area of birefringence was calculated using ImageJ software. […]

[2] = Plasma stability determination in mouse plasma; format: in vitro ADME; details: mouse, plasma, read-out: half-life (t1/2) in plasma
Procedure: Plasma stability determination. The degradation of TR001 in the presence of mouse plasma (from Innovative Research) was used to predict the plasma stability of the compound to esterase catalyzed hydrolysis. A positive control for plasma cholinesterase, propantheline bromide, was included in all assays. Briefly, murine plasma was incubated with 1 μm TR001. Aliquots were removed at t=0, 5, 15, 30, and 60 and 120 min and quenched with acetonitrile containing structurally related compound (TR073) as the internal standard. The amount of TR001 remaining in the supernatant was assessed by LC-MS/MS in multiple reaction monitoring mode (MRM) using a 4000 QTRAP (SCIEX) with electrospray ionization source. The instrument was operated in negative mode with source parameters: source voltage […], GS1 50, GS2 50, CUR 30, TEM 650 and CAD gas MED. Optimal MRM transitions were obtained by direct infusion of the pure compound into the source. The mass spectrometer was interfaced to a Shimadzu (Columbia, MD) SIL-20AC XR auto-sampler maintained at 35° C. followed by 2 LC-20AD XR LC pumps. The internal standard and compound of interest were resolved using a Gemini-NX C18 50×2.1 mm column (Phenomenex) with 0.1% formic acid (solvent A) and 0.1% formic acid in acetonitrile (solvent B). The injection volume was 10 μL at a flow rate of 0.75 mL/min. The gradient elution was 10% B to 95% B over 5 min and held at 95% for 1 min before returning to start conditions. The column was maintained at 40° C. using a Shimadzu CTO-20AC column oven. Data were acquired using Analyst 1.6.2 and analyzed using Multiquant 3.0.1 software. The first-order rate constant for substrate depletion was determined from a linear least squares fit of the natural log of the percent parent compound remaining versus time. The rate constant was used to calculate the plasma half-life as an indicator of stability.

[3] = test system: col6a1 zebrafish morphants; assay: Survival of col6a1 zebrafish morphants; format: in vivo
From the text: In FIG. 6D, the left panel represents data from embryos injected with a scrambled morpholino (scrd_MO, open squares), Exon 9 col6a1 morpholino (col6a1_MO, closed squares) and col6a1_MO embryos treated with TR001 at 0.1 μm (open circles), 1.0 μm (open triangles), 10 μm (open diamonds). Right panel represents data from embryos injected with a scrambled morpholino (scrd_MO, open squares), Exon 9 col6a1 morpholino (col6a1_MO, closed squares) and col6a1_MO embryos treated with 63 at […] (closed circles), 1.0 μm (closed triangles), 10 μm (closed diamonds). Embryos were treated with oligomycin, FCCP, rotenone (R) and antimycin A (A) as indicated. Results are presented as mean±SEM. Both graphs report data from 5 independent experiments with n=20 for each treatment. Error bars are reported as SEM. FIG. 6E, Survival of DMSO-treated zebrafish injected with the scrambled morpholino (open squares), DMSO-treated col6a1 morphants (closed squares) and col6a1 morphants treated with TR001 (0.1 μm, open triangles; 1.0 μm, open circles; 10 μm, open diamonds) or 63 (0.1 μm, closed triangles; 1.0 μm, closed circles; 10 μm, closed diamonds) were recorded for 30 days. Treatment started at 21 hpf and repeated at 4 dpf (arrows). Data report the percentage of surviving fish and are mean±SEM from 3 independent experiments (n=15 for each condition in each set).
Finally, fish survival was also assessed. Fifty percent of col6a1 morphant embryos treated with 0.1 μm of TR001 survived 7 days longer than col6a1 morphants treated with DMSO (p<0.0001 from 3 to 12 dpf), and 20% were still alive at 30 dpf (i.e., after 29 days of treatment) (FIG. 6E).
(§1) Morpholino antisense injection and treatment. Knock-down of col6a1 gene expression was obtained with a previously published morpholino ^[25] with sequence GAGAGCGGAAGACGAACCTTCATTC (SEQ ID NO: 2; GeneTools, Inc.). A control morpholino with no sequence homology in the zebrafish genome was used in parallel (CCTCTTACCTCAGTTACAATTTATA; SEQ ID NO: 3). Zebrafish eggs from wild-type matings were injected at the 1-2 cell stage with approximately 10 nL of 0.1 mm morpholino solution (corresponding to 4 ng of morpholino) using a WPI pneumatic PicoPump PV820 injector (World Precision Instruments, Inc.). Zebrafish embryos were dechorionated at 20 hours post fertilization (hpf) and treated at 21 hpf with increasing doses (0.1, 1 and 10 μm) of both TR001 and 63 compounds dissolved in fish water with 1% DMSO (vehicle).
Survival. Zebrafish survival was monitored every 3 days for 30 days. Drug treatment with both TR001 and 63 dissolved in fish water with 1% DMSO started at 21 hpf. After 3 days of treatment (4 days post fertilization, dpf), zebrafish were moved to a bigger tank (50 mL) with fresh compounds dissolved in 1% DMSO. As a control vehicle, fish water with 1% DMSO was used.

[4] = test system: col6a1 zebrafish morphants; assay: Touch-evoked escape response in col6a1 zebrafish morphants; format: in vivo; details: 48 hpf
Procedure: (§2) Zebrafish embryos were injected with col6a1 morpholino at the 1-cell stage, dechorionated at 20 hpf and treated at 21 hpf with 0.1, 1 or 10 μm of either TR001 or 63. DMSO-treated embryos injected with a scrambled morpholino were used as a control. […] It should be noted that in these protocols, embryos were exposed to drugs for a longer period of time than in the spontaneous coiling experiments. This difference may help to explain why TR001 was as effective at 0.1 μm as it was at 1 and 10 μm.
as §1
Motor activity. The number of spontaneous coiling events performed in 15 seconds by single zebrafish embryos was recorded at 24 hpf by light microscopy. Touch-evoked escape responses were recorded at 48 hpf by observing the ability of zebrafish embryos to escape after a tail-touch with a little tip. Embryos were subdivided in 4 groups according to the observed phenotype: paralyzed embryos, score 0; underdeveloped embryos showing only coiling events, score 1; embryos showing lower motility, score 2; normal embryos, score 3.

[5] = test system: col6a1 zebrafish morphants; assay: Spontaneous coiling events in col6a1 zebrafish morphants; format: in vivo; details: 24 hpf, 3 hours of treatment, 0.1, 1 or 10 μm
Procedure: as §2
Morpholino antisense injection and treatment. Knock-down of col6a1 gene expression was obtained with a previously published morpholino ^[25] with sequence GAGAGCGGAAGACGAACCTTCATTC (SEQ ID NO: 2; GeneTools, Inc.). A control morpholino with no sequence homology in the zebrafish genome was used in parallel (CCTCTTACCTCAGTTACAATTTATA; SEQ ID NO: 3). […]
Motor activity. The number of spontaneous coiling events performed in 15 seconds by single zebrafish embryos was recorded at 24 hpf by light microscopy. Touch-evoked escape responses were recorded at 48 hpf by observing the ability of zebrafish embryos to escape after a tail-touch with a little tip. […]

Cc1ccc(Cl)cc1NC(=O)c1cc(-c2ccc(F)c(O)c2)on1 [Compound 63, reference compound]
muscle structure by birefringence [1]: minimal effect | half-life at 1 µM [2]: 21 min | survival (in words) ([3]; 1 μm): ineffected | survival (in words) ([3]; 10 μm): ineffected | survival (in words) ([3]; lowest concentration tested (0.1 μm)): decreased activity compared to TR001 | touch-evoked escape response (motility) ([4]; 0.1-1.0 μM): minimal recovery | touch-evoked escape response (motility) ([4]; 10 μm): no longer seen | spontaneous coiling events [5]: no effect
